Source: the NIST ThermoML archive (doi:10.1021/je8002964)
Numbers after ± are expanded uncertainties.

Details: 298.15 K; 101.33 kPa; Liquid

Going from `OCC(F)(F)F` [2,2,2-trifluoroethanol] to `CO` [methanol], the mass density falls from 1382.4 ± 1.2 kg/m3 to 787 ± 0.4 kg/m3.

First: C1CCCCC1 [cyclohexane]
Second: CCCCCCC [heptane]
The mass density of the first is higher: 774 ± 0.3 kg/m3 for the first, 680 ± 0.7 kg/m3 for the second.

`CC(C)O` [propan-2-ol] gave a mass density of 781.4 ± 0.5 kg/m3.
